The values below come from PubChem BioAssay (NCI).

Some test systems named below: 786-0 renal; COLO 205 colon; HOP-92 NSCLC; HT29 colon; NCI-H226 lung; OVCAR-5 ovarian; SF-268 CNS; SK-MEL-28 melanoma; SNB-19 CNS; UACC-257 melanoma; NCI-H460 lung.
What all share (assay): NCI anticancer screen, dose series, 48 h

SMILES strings stand for the structures.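 Dose response: 5 concentrations. Exposure: 48 h. Format: 96-well plates. Endpoint: linear interpolation; highest concentration if not reached. TGI: total growth inhibition.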

Take `CCO[C@H]1C[C@@H](c2ccccc2)[C@]2(C)C[C@H](C(=O)OC)ON2O1`: the TGI in the test with 786-0 renal, with COLO 205 colon, with HOP-92 NSCLC, with HT29 colon, with NCI-H226 lung and in the test with OVCAR-5 ovarian was > 100 µM each time. In addition, the TGI with SF-268 CNS, in the test on SK-MEL-28 melanoma, with SNB-19 CNS and with UACC-257 melanoma was > 100 µM throughout.
Turning to `Cn1c2ccccc2n2c3ccccc3c(=S)c(C#N)c12`, the TGI in the test with 786-0 renal, in the test on HT29 colon, with NCI-H226 lung, in the test on NCI-H460 lung, in the test on OVCAR-5 ovarian and in the test on SF-268 CNS was > 100 µM throughout. The TGI with SK-MEL-28 melanoma, in the test on SNB-19 CNS and with UACC-257 melanoma was > 100 µM throughout.
As for `N#Cc1nc(Cc2ccccc2)oc1N`, the TGI with 786-0 renal, in the test with COLO 205 colon, in the test on HT29 colon, with NCI-H226 lung, with NCI-H460 lung and in the test on OVCAR-5 ovarian was > 100 µM throughout. Further, the TGI in the test on SF-268 CNS, with SK-MEL-28 melanoma, in the test with SNB-19 CNS and in the test on UACC-257 melanoma was > 100 µM each time.
For `N#Cc1nsnc1-c1nc(-c2nsnc2C#N)nc(-c2nsnc2C#N)n1`, the TGI in the test with 786-0 renal, with COLO 205 colon, in the test with HT29 colon, in the test with NCI-H226 lung, with NCI-H460 lung and in the test with OVCAR-5 ovarian was > 100 µM each time. The TGI with SF-268 CNS, with SK-MEL-28 melanoma, in the test on SNB-19 CNS and in the test with UACC-257 melanoma was > 100 µM throughout.
For the compound `COc1ccc(NC(C)=O)c(C(=O)CCNC(C)=O)c1`, the TGI in the test with 786-0 renal, with COLO 205 colon, in the test on HOP-92 NSCLC, in the test on HT29 colon, in the test with NCI-H226 lung and with NCI-H460 lung was > 100 µM throughout. The TGI in the test with OVCAR-5 ovarian, in the test with SF-268 CNS, in the test with SNB-19 CNS and in the test on UACC-257 melanoma was > 100 µM each time.
`Cc1ccc(-c2c(C#N)c(S)n(NS(=O)(=O)c3ccccc3)c(=O)c2C#N)cc1`: the TGI in the test on 786-0 renal is > 100 µM; with COLO 205 colon, > 100 µM; in the test with HOP-92 NSCLC it was > 100 µM; in the test with NCI-H226 lung, 69 µM; in the test with NCI-H460 lung, 31.3 µM; with OVCAR-5 ovarian it was > 100 µM. Further, the TGI in the test on SK-MEL-28 melanoma, in the test on SNB-19 CNS and in the test on UACC-257 melanoma was > 100 µM in each case.
With `c1ccc(-c2cc(-c3cc(-c4ccccc4)n[nH]3)[nH]n2)cc1`, the TGI in the test with 786-0 renal, in the test with COLO 205 colon, in the test with HT29 colon, in the test with NCI-H226 lung, in the test on NCI-H460 lung and with OVCAR-5 ovarian was > 100 µM each time. Further, the TGI with SF-268 CNS, in the test with SNB-19 CNS and in the test on UACC-257 melanoma was > 100 µM each time.
For `CSc1nc(-c2cc3c(c(SC)n2)CCC3)cc2c1CCC2`, the TGI in the test on 786-0 renal, with COLO 205 colon, in the test on HT29 colon, in the test on NCI-H226 lung, in the test on NCI-H460 lung and with OVCAR-5 ovarian was > 100 µM throughout. In addition, the TGI in the test on SF-268 CNS, in the test on SK-MEL-28 melanoma, in the test on SNB-19 CNS and with UACC-257 melanoma was > 100 µM throughout.
In the case of `C/C(=N/NC(=S)N(Cc1ccccn1)Cc1ccccn1)c1cnccn1`, the TGI is 7.97 µM in the test on 786-0 renal; > 37.6 µM in the test with HOP-92 NSCLC; 10.3 µM in the test with HT29 colon; 0.157 µM with NCI-H226 lung; > 33.1 µM in the test on NCI-H460 lung; 32.6 µM in the test with OVCAR-5 ovarian. Besides, the TGI is 14 µM in the test with SF-268 CNS, > 61.8 µM in the test with SK-MEL-28 melanoma, 18.8 µM in the test with SNB-19 CNS and 8.61 µM in the test with UACC-257 melanoma.
For the compound `CO/N=C1/C(n2[nH]c(=O)n(-c3ccccc3)c2=O)C2C=CC1n1c(=O)n(-c3ccccc3)c(=O)n12` (stereo not drawn), the TGI with 786-0 renal, in the test on COLO 205 colon, in the test with HT29 colon, in the test on NCI-H226 lung, in the test on NCI-H460 lung and in the test with OVCAR-5 ovarian was > 100 µM in each case. For the same compound, the TGI with SF-268 CNS, with SK-MEL-28 melanoma, with SNB-19 CNS and in the test with UACC-257 melanoma was > 100 µM in each case.
In the case of `C=CCOc1ccc(C2c3c([nH][nH]c3=O)CC(C)(O)C2C(=O)OC)cc1OC` (stereo not drawn), the TGI in the test on 786-0 renal, in the test on COLO 205 colon, with HOP-92 NSCLC, in the test on HT29 colon, in the test on NCI-H460 lung and in the test on OVCAR-5 ovarian was > 100 µM throughout. Also, the TGI in the test on SF-268 CNS, with SK-MEL-28 melanoma, in the test on SNB-19 CNS and with UACC-257 melanoma was > 100 µM each time.
As for `OCCCN(CCc1ccc(Cl)c(Cl)c1)CCN1CCCC1`, the TGI with 786-0 renal was 60.4 µM; in the test on HOP-92 NSCLC it was > 100 µM; in the test with HT29 colon it was > 100 µM; in the test on NCI-H460 lung, > 100 µM; with OVCAR-5 ovarian, > 100 µM; in the test with SF-268 CNS, > 100 µM. Further, the figures for the TGI with SNB-19 CNS and in the test on UACC-257 melanoma were > 100 µM and 36 µM, respectively.
Consider `O=C(/C(Cl)=C/c1ccccc1)c1ccccc1`, for which the TGI with 786-0 renal is 3.37 µM; in the test with HOP-92 NSCLC, 12.9 µM; in the test on HT29 colon, 3.52 µM; with NCI-H226 lung, 18.1 µM; in the test on NCI-H460 lung, 30.5 µM; in the test with OVCAR-5 ovarian, 19.8 µM. For the same compound, the TGI in the test with SF-268 CNS came out at 21.9 µM; in the test with SK-MEL-28 melanoma it was 6.06 µM; in the test with SNB-19 CNS, 29.3 µM; in the test with UACC-257 melanoma it was 19.3 µM.
For `CCCC(=O)N[C@@H](Cc1cc(I)c(O)c(I)c1)C(=O)NCCCNCCCCNCCCNC(=O)[C@@H](N)CCCN=C(N)N`, the TGI in the test with 786-0 renal, in the test on COLO 205 colon, in the test on HT29 colon, in the test with NCI-H226 lung, in the test on NCI-H460 lung and with SK-MEL-28 melanoma was > 100 µM each time. Further, the TGI in the test on SNB-19 CNS and with UACC-257 melanoma was > 100 µM throughout.
